# Values of other authors as cited in patent US8529964B1, “Method and composition for suppression and control of citrus canker and other plant diseases” (priority 2010, dated 2013).
structure (smiles),measurement,value
O.O.O=C([O-])c1ccccc1.O=C([O-])c1ccccc1.[Cu+2] [copper benzoate dehydrate],water solubility (in words),slightly water soluble
